Where two headings read alike, the source gives them in different places.
Experiments:
[1] = biological target: T1, HiBiT-tagged SALL4 (Homo sapiens, UniProt Q96SW2+Q9UJQ4); experiment: Degradation assay for SALL4 (HiBiT tag bioluminescence assay); type: cell-based; settings: HT-1080 SALL4 HiBiT reporter cells; for DC50: read-out: HiBiT SALL4: DC50
T1 construct: expressed in transfected cells; host or cells: HT-1080 (ATCC CCL-121), lentiviral transduction
Procedure: (§1) About 10,000 cells in complete DMEM cell culture media were seeded per well. Assay plates were incubated at 37° C. with 5% CO2 for hours, followed by the assessment of IKZF1 or SALL4 degradation using the Nano-Glo HiBiT Lytic Detection Reagent (Cat #N3050, Promega) according to the manufacturer's instruction. Luminescence was then measured with an EnVision plate reader (PerkinElmer) or a PHERAstar plate reader (BMG Labtech). All IKZF1 or SALL4 degradation curves were processed using Collaborative Drug Discovery Vault softwares. IKZF1 or SALL4 levels in compound-treated wells were normalized to that of DMSO control and expressed as Percent of Control (PoC, y). A four Parameter Logistic Model was used to determine the compound's EC50 and DC50, using the following equation:
(§2) A=Ymin (lowest IKZF1 or SALL4 level normalized to DMSO control in response to compound treatment, as determined by curve fit)
(§3) B=Ymax (IKZF1 or SALL4 level in DMSO control)
(§4) C=EC50 half degradation concentration
(§5) EC50=the concentration of compound when y=(Ymax−Ymin)/2
(§6) DC50=test sample concentration when IKZF1 or SALL4 readings y=50% DMSO-treated samples
(§7) y=IKZF1 or SALL4 readings after test sample treatment (normalized to IKZF1 or SALL4 readings in DMSO-treated samples)
(§8) Dmax represents the maximum percentage of IKZF1 or SALL4 protein degradation induced by compound treatment.

[2] = biological target: T2, HiBiT-tagged IKZF1 (Homo sapiens, UniProt Q13422+Q96SW2); experiment: Degradation assay for IKZF1 (HiBiT tag bioluminescence assay); type: cell-based; settings: HT-1080 IKZF1 HiBiT reporter cells; for DC50: read-out: HiBiT IKZF1: DC50
T2 construct: expressed in transfected cells; host or cells: HT-1080 (ATCC CCL-121), lentiviral transduction
T2 sequence (Q13422 whole entry): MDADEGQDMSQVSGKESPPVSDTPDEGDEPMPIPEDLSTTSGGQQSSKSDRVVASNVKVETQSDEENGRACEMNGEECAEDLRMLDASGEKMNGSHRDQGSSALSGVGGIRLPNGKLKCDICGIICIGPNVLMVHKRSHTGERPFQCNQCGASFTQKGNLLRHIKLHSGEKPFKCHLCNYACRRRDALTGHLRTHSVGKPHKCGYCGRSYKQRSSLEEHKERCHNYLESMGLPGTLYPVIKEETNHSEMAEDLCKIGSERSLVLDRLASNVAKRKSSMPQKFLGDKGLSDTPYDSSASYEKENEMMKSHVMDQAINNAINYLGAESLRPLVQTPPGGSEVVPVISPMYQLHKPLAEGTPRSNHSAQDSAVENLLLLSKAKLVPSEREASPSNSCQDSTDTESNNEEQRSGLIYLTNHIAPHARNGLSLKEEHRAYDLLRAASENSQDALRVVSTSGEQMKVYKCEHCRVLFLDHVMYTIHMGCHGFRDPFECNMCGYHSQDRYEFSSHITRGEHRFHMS
T2 sequence (Q96SW2 whole entry): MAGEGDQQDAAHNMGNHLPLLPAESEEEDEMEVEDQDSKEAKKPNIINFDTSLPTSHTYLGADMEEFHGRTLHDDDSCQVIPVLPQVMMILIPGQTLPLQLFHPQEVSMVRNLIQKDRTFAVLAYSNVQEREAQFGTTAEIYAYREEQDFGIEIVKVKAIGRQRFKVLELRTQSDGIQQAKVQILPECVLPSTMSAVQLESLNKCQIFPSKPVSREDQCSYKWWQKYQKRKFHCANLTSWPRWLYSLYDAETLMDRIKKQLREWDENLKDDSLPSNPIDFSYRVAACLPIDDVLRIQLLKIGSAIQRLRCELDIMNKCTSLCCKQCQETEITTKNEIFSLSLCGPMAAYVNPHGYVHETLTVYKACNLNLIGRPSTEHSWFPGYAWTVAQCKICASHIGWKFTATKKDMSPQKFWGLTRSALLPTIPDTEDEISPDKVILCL
T2 sequence (Q16531 whole entry partner): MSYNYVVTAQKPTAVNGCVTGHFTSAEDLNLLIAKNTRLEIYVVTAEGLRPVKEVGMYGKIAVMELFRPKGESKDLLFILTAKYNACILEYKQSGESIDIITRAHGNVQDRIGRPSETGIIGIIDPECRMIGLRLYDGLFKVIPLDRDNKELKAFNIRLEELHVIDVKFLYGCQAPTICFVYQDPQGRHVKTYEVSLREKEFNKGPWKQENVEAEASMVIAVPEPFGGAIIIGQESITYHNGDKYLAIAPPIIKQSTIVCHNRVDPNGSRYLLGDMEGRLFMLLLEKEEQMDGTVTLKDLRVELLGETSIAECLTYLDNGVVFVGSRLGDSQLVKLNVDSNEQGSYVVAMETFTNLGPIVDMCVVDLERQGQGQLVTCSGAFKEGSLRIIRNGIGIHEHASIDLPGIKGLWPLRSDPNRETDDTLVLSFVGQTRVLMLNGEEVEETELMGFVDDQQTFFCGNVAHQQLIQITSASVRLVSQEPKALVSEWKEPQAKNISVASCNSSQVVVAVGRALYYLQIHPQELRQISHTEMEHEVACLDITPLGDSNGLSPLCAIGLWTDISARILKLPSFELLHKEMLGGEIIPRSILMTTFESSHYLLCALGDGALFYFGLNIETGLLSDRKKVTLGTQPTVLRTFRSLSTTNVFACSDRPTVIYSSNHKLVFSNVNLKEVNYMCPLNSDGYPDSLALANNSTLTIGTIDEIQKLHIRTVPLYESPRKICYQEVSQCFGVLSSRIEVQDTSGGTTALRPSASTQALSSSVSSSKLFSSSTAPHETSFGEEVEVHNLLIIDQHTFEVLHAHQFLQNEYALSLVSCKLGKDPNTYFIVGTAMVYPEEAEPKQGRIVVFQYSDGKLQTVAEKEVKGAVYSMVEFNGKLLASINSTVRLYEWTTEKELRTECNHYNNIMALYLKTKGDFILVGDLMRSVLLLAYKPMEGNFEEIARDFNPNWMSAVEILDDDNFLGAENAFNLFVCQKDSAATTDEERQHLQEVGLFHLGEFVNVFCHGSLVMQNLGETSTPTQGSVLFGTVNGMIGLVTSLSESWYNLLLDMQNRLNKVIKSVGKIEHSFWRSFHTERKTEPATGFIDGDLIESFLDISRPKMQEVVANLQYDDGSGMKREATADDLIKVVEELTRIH
Procedure: as §1, §2, §3, §4, §5, §6, §7, §8

[3] = system: MM.1S cells; experiment: MM.1S cell proliferation assay (CellTiter-Glo); type: cell-based; settings: for IC50: Homo sapiens, MM1.S, read-out: MM.1S: IC50; for Ymin: lowest cell viability read normalized to DMSO control, MM.1S, 120 hours
Procedure: About 3,000 cells in 50 μL of culture medium were seeded per well. Assay plates were incubated at 37° C. with 5% CO2 for 120 hours. After that, 20 μL of the CellTiter-Glo Luminescent Cell Viability Assay Reagent (Cat #G7573, Promega) was added to each well and incubated at room temperature for 30 minutes. Luminescence was then measured with an EnVision plate reader (PerkinElmer) or a PHERAstar plate reader (BMG LABTECH). All percentage of cell growth inhibition curves were processed using Collaborative Drug Discovery Vault softwares. Cell viability reads in compound-treated wells were normalized to that of DMSO control and expressed as Percent of Control (PoC, y). A four Parameter Logistic Model was used to determine the compound's EC50 and DC50, using the following equation:
[formula] • wherein, • A=Ymin (lowest cell viability read normalized to DMSO control in response to compound treatment, as determined by curve fit) • B=Ymax (the maximum value, cell viability read in DMSO control) • C=EC50 half inhibitory concentration • D=Hill Slope • x=compound concentration
as §5
y=cell viability read normalized to DMSO control

[4] = biological target: T2, HiBiT-tagged IKZF1; experiment: IKZF1 protein degradation kinetics (IKZF1 HiBiT degradation assay, incubation 1, 2 or 4 hours); type: cell-based
Excerpt: The following is a general method for testing compounds-induced degradation of HiBiT-tagged IKZF1 or SALL4 overexpressed in a human cell line, for example, the HT-1080 cell line (American Type Culture Collection (ATCC), catalog number CCL-121). The HT-1080 IKZF1 (or SALL4) HiBiT reporter cell line was engineered via lentiviral transduction to stably overexpress GSPT1 (Δ1-138)/G575N and HiBiT-tagged IKZF1 or SALL4. The HT-1080 IKZF1 (or SALL4) HiBiT reporter cell line was maintained in DMEM media supplemented with 10% fetal bovine serum, IX sodium pyruvate, 1× non-essential amino acids, IX glutamine, 100 U/ml penicillin, and 100 μg/mL streptomycin. The HT-1080 IKZF1 (or SALL4) HiBiT reporter cells were seeded into 384-well plates (Cat #3764, Corning) pre-spotted with DMSO or test compounds. Increasing concentrations of test compounds (ranging from 15.81 pM to 500 nM or from 0.3162 nM to 10 μM at a 3.162-fold increment) or DMSO were dispensed into an empty 384-well plate using an Echo 650 Acoustic Liquid Handler (Beckman Coulter). About 10,000 cells in complete DMEM cell culture media were seeded per well. Assay plates were incubated at 37° C. with 5% CO2 for hours, followed by the assessment of IKZF1 or SALL4 degradation using the Nano-Glo HiBiT Lytic Detection Reagent (Cat #N3050, Promega) according to the manufacturer's instruction. Luminescence was then measured with an EnVision plate reader (PerkinElmer) or a PHERAstar plate reader (BMG Labtech). All IKZF1 or SALL4 degradation curves were processed using Collaborative Drug Discovery Vault softwares. IKZF1 or SALL4 levels in compound-treated wells were normalized to that of DMSO control and expressed as Percent of Control (PoC, y). A four Parameter Logistic Model was used to determine the compound's EC50 and DC50, using the following equation: […]
The IKZF1 protein degradation kinetics of compounds 9-B and 9-A was evaluated using the IKZF1 HiBiT degradation assay as described above except that the incubation time was changed to 1, 2 or 4 hours.

[5] = Pharmacokinetic study in mice; type: in vivo; settings: male CD1 mice
Procedure: Objective: The objective of this study was to determine the pharmacokinetics of test compound following a single intravenous (IV) bolus dose and a single oral (PO) administration in male CD1 mice by quantifying the concentrations of the test compound at different times in plasma using LC/MS/MS method.
Materials: Male CD1 mouse (20-30 g, 6-8 weeks, Zhejiang Vital River Laboratory Animal Technology Co., Ltd.).
The clear solution of the test article was injected into CD1 mice via tail vein (free access to food and water), or orally administrated into CD1 mice (free access to food and water). After administration, blood was collected from the dorsal metatarsal vein at 5 min (0.0833 h, IV only), 15 min (0.25 h), 30 min (0.5 h), 60 min (1 h), 2 h, 4 h, 6 h, 8 h and 24 h. Blood samples were placed in an anticoagulant tube with EDTA-K2 at 4° C., mixed adequately and centrifuged at 4000 g for 5 min to get the plasma. The plasma concentration was quantified by LC-MS/MS. The PK parameters were calculated using non-compartmental model by Phoenix WinNonlin 6.1 (Linear/log trapezoidal).

[6] = HT-1080, Table 1, maximum percentage of protein degradation
[7] = HT-1080, Table 2, all compounds tested on the same day
[8] = Table 1, performed once with technical duplicates, some compounds tested on different days
[9] = Table 2, all compounds tested on the same day
[10] = antiproliferative, 120 hours incubation, CellTiter-Glo
[11] = after 1 hour of compound incubation
[12] = mouse, Table 5, PO (10 mg/kg), plasma
[13] = mouse, Table 4, PO (10 mg/kg), plasma
[14] = Table 1, maximum percentage of protein degradation

T1 sequence (Q9UJQ4 whole entry): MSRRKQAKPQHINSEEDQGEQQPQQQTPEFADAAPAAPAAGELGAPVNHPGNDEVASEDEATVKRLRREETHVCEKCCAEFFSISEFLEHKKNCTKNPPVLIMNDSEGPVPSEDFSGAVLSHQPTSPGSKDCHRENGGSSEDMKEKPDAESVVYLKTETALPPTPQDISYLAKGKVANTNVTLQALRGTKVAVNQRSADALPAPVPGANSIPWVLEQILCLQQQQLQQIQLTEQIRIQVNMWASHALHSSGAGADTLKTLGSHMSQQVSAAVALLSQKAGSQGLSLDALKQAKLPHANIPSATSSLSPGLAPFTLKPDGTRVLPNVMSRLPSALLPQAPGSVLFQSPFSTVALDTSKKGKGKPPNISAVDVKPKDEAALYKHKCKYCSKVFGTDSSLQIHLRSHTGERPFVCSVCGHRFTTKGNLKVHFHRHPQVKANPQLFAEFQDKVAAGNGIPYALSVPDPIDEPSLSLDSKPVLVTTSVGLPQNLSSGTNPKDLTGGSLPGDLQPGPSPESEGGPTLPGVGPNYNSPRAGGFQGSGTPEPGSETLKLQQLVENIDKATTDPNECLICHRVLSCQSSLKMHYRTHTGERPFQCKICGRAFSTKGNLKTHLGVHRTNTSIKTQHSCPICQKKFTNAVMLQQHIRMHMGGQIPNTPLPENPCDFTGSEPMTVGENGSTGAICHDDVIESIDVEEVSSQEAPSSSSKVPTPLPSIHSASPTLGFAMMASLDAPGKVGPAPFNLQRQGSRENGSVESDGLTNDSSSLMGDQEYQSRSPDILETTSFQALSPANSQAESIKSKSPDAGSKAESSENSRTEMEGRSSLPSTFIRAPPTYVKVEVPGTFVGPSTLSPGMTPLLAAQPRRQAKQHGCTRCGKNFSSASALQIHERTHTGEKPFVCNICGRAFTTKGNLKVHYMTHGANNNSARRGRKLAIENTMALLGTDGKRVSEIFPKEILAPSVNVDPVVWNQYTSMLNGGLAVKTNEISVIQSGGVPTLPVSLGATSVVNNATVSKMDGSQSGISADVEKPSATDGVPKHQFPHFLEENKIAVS
T1 sequence (Q96SW2 whole entry): as the sequence (Q96SW2 whole entry) above
T1 sequence (Q16531 whole entry partner): as the sequence (Q16531 whole entry partner) above

## N#Cc1ccc(N2CCN(Cc3ccc(Cc4ccc5c6c(cc(F)cc46)C(=O)N5[C@H]4CCC(=O)NC4=O)cc3)CC2)c(F)c1 (single isomer, unassigned) [Compound 9-B]
[1]; [6]
  Dmax: 59.5%
[1]; [7]
  Dmax: 59.4%
[1]; [8]
  DC50: 104000 pM
[1]; [9]
  DC50: 102000 pM
[2]; [6]
  Dmax: 90.9%
[2]; [7]
  Dmax: 93.8%
[2]; [8]
  DC50: 134 pM
[2]; [9]
  DC50: 102 pM
[3]; [10]
  IC50: 22 pM
[3]
  Ymin: 5.6 (n = 3) %
[4]; [11]
  DC50: ~400 pM
  Dmax: ~77%
[4]; after 4 hours of incubation
  DC50: < 200 pM
  Dmax: 92%
[5]; [12]
  AUC(0-t): 73600 ng·h/mL
  Cmax: 4390 ng/mL
  half-life: 8.3 h

## N#Cc1ccc(N2CCN(Cc3ccc(Cc4ccc5c6c(cc(F)cc46)C(=O)N5C4CCC(=O)NC4=O)cc3)CC2)c(F)c1 (stereo not drawn) [Compound 9]
[1]; [6]
  Dmax: 58.1%
[1]; [8]
  DC50: 32000 pM
[2]; [6]
  Dmax: 91.6%
[2]; [8]
  DC50: 74 pM
[3]; [10]
  IC50: 40 pM
[3]
  Ymin: 4.0 (n = 2) %
[5]; Table 4, PO (10 mg/kg) vs IV (2 mg/kg)
  F: 27.1%
[5]; mouse, IV (2 mg/kg), plasma
  AUC(0-t): 17200 ng·h/mL
  clearance: 1.57 mL/min/kg
  half-life: 10.2 h
[5]; mouse, IV (2 mg/kg), plasma, read-out: Vss
  Vd: 1.32 L/kg
[5]; [13]
  AUC(0-t): 23300 ng·h/mL
  Cmax: 1460 ng/mL

## Nc1cccc2c1C(=O)N(C1CCC(=O)NC1=O)C2=O (stereo not drawn) [Pomalidomide]
[1]; [14]
  Dmax: 69.7%
[2]; [14]
  Dmax: 79.5%
[3]; 120 h
  IC50: > 30000 pM

Reference: patent US20240360150A1, “ISOINDOLINONE COMPOUNDS AND USES THEREOF” (HANGZHOU GLUBIO PHARMACEUTICAL CO. LTD., priority 2021, published 2024)
